The IC50 is the midpoint of a concentration-inhibition curve. As a reminder, the EC50 is the concentration giving half of the maximal effect.

These results are taken from patent publication US20130109682A1, “CYCLIC ETHER COMPOUNDS USEFUL AS KINASE INHIBITORS” (NOVARTIS AG, priority 2010, published 2013).

One assay concerns the target PIM3 (Homo sapiens, UniProt Q86V86). The assay can be described thus: KinaseGlo Pim3 ATP depletion assay. Type of assay: biochemical. The gist of the method: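 Residual ATP was detected by luciferase luminescence once about half had been consumed. The reaction contained 5 nM enzyme, 100 μM BAD peptide (RSRHSSYPAGT) and 40 μM ATP in 50 mM HEPES pH 7.5, 5 mM MgCl2, 1 mM DTT and 0.05% BSA with 2.5% DMSO. Compound and enzyme/peptide were premixed 15 min before ATP.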

Assay [1] has as its system KMS11 (human myeloma cell line). The assay can be described thus: Cell proliferation assay (CellTiter-Glo), KMS11. Type of assay: cell-based. The note with it: Homo sapiens, KMS-11; KMS11-Luc cells. On the procedure:
KMS11 (human myeloma cell line), were cultured in IMDM supplemented with 10% FBS, sodium pyruvate and antibiotics. Cells were plated in the same medium at a density of 2000 cells per well into 96 well tissue culture plates, with outside wells vacant, on the day of assay. MMl.s (human myeloma cell line), were cultured in RPMI1640 supplemented with 10% FBS, sodium pyruvate and antibiotics. Cells were plated in the same medium at a density of 5000 cells per well into 96 well tissue culture plates, with outside wells vacant, on the day of assay.
Test compounds supplied in DMSO were diluted into DMSO at 500 times the desired final concentrations before dilution into culture media to 2 times final concentrations. Equal volumes of 2× compounds were added to the cells in 96 well plates and incubated at 37° C. for 3 days.
After 3 days plates were equilibrated to room temperature and equal volume of CellTiter-Glow Reagent (Promega) was added to the culture wells. The plates were agitated briefly and luminescent signal was measured with luminometer.
Using the procedures of Cell Proliferation Assay, the EC50 concentration of indicated compounds of the examples in were determined in KMS11 cells as shown in Table 4.
(In general: In ATP-based viability assays light output follows the ATP content of the culture.)

Another assay has as its target PIM2 (Homo sapiens, UniProt Q9P1W9). The assay can be described thus: KinaseGlo Pim2 ATP depletion assay. Type of assay: biochemical. The gist of the method:
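Compound sat 15 min with enzyme and BAD peptide before ATP was added; final levels 5 nM PIM2, 10 μM peptide, 4 μM ATP, 2.5% DMSO, pH 7.5 HEPES buffer with MgCl2, DTT, BSA. Stopped near 50% ATP consumption; remaining ATP measured by luciferase luminescence.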
(Kinase-Glo measures the ATP left after a reaction by luminescence.)

The target of a further assay is PIM1 (Homo sapiens, UniProt P11309). The assay can be described thus: KinaseGlo Pim1 ATP depletion assay. Type of assay: biochemical. The gist of the method: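 IC50 is derived from residual ATP measured by KinaseGlo Plus luminescence once about half the ATP was consumed. Final conditions were 20 μM ATP, 40 μM BAD peptide and 2.5 nM kinase in HEPES pH 7.5 buffer with MgCl2, DTT and BSA, plus 2.5% DMSO. Compound and enzyme were premixed 15 min before ATP addition.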

The next assay addresses GSK3β (Homo sapiens, UniProt P49841). The assay can be described thus: GSK3β ATP depletion assay. The following applies: read-out: GSK3b IC50. Type of assay: biochemical. The gist of the method:
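Kinase activity is read as ATP consumption: luciferase luminescence reports the ATP remaining once roughly half of the 2 μM ATP is used. Reaction mix: 5 nM GSK3β, 10 μM b-CREB peptide, 50 mM Tris pH 7.5, 15 mM MgCl2, 1 mM DTT, 0.1% BSA, 2.5% DMSO. Enzyme and peptide are preincubated 15 min before ATP is added.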

PIM1, sequence (P11309 whole entry): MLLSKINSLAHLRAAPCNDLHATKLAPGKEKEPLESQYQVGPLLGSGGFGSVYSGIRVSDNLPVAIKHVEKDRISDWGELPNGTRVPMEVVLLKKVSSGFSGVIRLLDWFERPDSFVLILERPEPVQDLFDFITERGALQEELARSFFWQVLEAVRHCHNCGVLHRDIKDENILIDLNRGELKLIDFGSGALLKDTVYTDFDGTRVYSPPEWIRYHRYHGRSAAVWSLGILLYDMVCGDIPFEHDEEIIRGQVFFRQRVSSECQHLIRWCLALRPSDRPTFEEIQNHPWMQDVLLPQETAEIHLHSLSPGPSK
GSK3β, sequence (P49841 whole entry, species assumed): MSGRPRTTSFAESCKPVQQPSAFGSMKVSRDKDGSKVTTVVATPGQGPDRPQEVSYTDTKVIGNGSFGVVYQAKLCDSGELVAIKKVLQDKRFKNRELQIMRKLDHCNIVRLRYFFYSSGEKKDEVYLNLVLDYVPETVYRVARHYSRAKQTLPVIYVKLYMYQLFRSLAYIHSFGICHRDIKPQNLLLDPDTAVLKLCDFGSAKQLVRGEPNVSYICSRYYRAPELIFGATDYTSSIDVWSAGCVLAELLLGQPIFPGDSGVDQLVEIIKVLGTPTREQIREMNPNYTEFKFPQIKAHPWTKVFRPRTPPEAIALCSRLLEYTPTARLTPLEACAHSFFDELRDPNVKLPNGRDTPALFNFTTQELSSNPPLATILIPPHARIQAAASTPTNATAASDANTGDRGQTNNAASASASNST
PIM2, sequence (Q9P1W9 whole entry): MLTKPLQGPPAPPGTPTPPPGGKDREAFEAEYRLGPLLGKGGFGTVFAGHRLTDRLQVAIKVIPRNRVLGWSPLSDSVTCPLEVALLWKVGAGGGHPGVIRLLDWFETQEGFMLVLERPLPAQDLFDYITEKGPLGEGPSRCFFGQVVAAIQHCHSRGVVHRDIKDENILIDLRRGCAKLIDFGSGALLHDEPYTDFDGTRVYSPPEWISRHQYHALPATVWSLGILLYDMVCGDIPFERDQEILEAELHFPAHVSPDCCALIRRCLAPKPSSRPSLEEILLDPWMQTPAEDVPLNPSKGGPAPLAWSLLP

Regarding `C[C@@H]1O[C@H](c2ccncc2NC(=O)c2csc(-c3c(F)cccc3F)n2)C[C@H](O)[C@H]1O` (stereo in doubt) [Example 135, 2-(2,6-difluorophenyl)-N-(4-((2S,4S,5R,6S)-4,5-dihydroxy-6-methyltetrahydro-2H-pyran-2-yl)pyridin-3-yl)thiazole-4-carboxamide], the IC50 on PIM3 came out at 7 nM; against PIM2, 149 nM; against PIM1 it was 1 nM; at GSK3β, 76 nM. For the same compound, the EC50 in assay [1] is above 10 µM.
On to `C[C@H]1O[C@@H](c2ccncc2NC(=O)c2csc(-c3c(F)cccc3F)n2)C[C@@H](O)[C@@H]1O` (stereo in doubt) [Example 136, 2-(2,6-difluorophenyl)-N-(4-((2R,4R,5S,6R)-4,5-dihydroxy-6-methyltetrahydro-2H-pyran-2-yl)pyridin-3-yl)thiazole-4-carboxamide], for which the IC50 is 13 nM on PIM3, 363 nM at PIM2, 18 nM at PIM1 and 165 nM on GSK3β. Also, the EC50 in assay [1] is above 10 µM.
Regarding `N#Cc1ccc(F)c(-c2nc(C(=O)Nc3cnccc3[C@H]3C[C@@H](O)[C@H](O)[C@@H](CCl)O3)ccc2F)c1F` [Example 1, N-(4-((2R,4R,5S,6S)-6-(chloromethyl)-4,5-dihydroxytetrahydro-2H-pyran-2-yl)pyridin-3-yl)-6-(3-cyano-2,6-difluorophenyl)-5-fluoropicolinamide], the IC50 against PIM3 came to 3.2 nM; against PIM2 it was 5 nM; against PIM1, 17 nM; on GSK3β it was 33 nM. The compound further came in with an EC50 in assay [1] of 9.35 µM.
Consider `CC[C@H]1O[C@@H](c2ccncc2NC(=O)c2ccc(F)c(-c3c(F)ccc(C#N)c3F)n2)C[C@@H](O)[C@@H]1O` [Example 2, 6-(3-cyano-2,6-difluorophenyl)-N-(4-((2R,4R,5S,6R)-6-ethyl-4,5-dihydroxytetrahydro-2H-pyran-2-yl)pyridin-3-yl)-5-fluoropicolinamide], for which the IC50 was found to be 8.3 nM at PIM3, 13 nM at PIM2, 42 nM against PIM1 and 51 nM at GSK3β. In addition, in assay [1], the EC50 was above 10 µM.
As for `CC[C@]1(O)[C@H](O)C[C@H](c2ccncc2NC(=O)c2nc(-c3nccs3)ccc2N)O[C@@H]1C` [Example 3, 3-amino-N-(4-((2R,4R,5S,6R)-5-ethyl-4,5-dihydroxy-6-methyltetrahydro-2H-pyran-2-yl)pyridin-3-yl)-6-(thiazol-2-yl)picolinamide], the IC50 against PIM3 turned out to be 12 nM; against PIM2, 66 nM; against PIM1, 8.7 nM; at GSK3β it was 1170 nM. The compound further returned an EC50 in assay [1] above 10 µM.
The matching figures for `N#C[C@H]1OC(c2ccncc2NC(=O)c2nc(-c3c(F)cccc3F)c(F)cc2N)=C[C@@H](O)[C@@H]1O` [Example 4, 3-amino-N-(4-((2R,3S,4R)-2-cyano-3,4-dihydroxy-3,4-dihydro-2H-pyran-6-yl)pyridin-3-yl)-6-(2,6-difluorophenyl)-5-fluoropicolinamide]: 3.1 nM, 4 nM, 1.1 nM, 268 nM and 7.24 µM.
Consider `C=C1[C@@H](O)C[C@@H](c2ccncc2NC(=O)c2nc(-c3c(F)cccc3F)ncc2N)OC12CC2` [Example 6, 5-amino-2-(2,6-difluorophenyl)-N-(4-((5S,7S)-7-hydroxy-8-methylene-4-oxaspiro[2.5]octan-5-yl)pyridin-3-yl)pyrimidine-4-carboxamide], for which the IC50 came out at 53.6 nM at PIM3, 280 nM on PIM2, 70 nM against PIM1 and 720 nM on GSK3β. Besides, the EC50 in assay [1] is above 10 µM.
The corresponding values for `C=C1[C@@H](O)C[C@@H](c2ccncc2NC(=O)c2ccc(F)c(-c3c(F)cccc3F)n2)OC12CC2` [Example 7, 6-(2,6-difluorophenyl)-5-fluoro-N-(4-((5S,7S)-7-hydroxy-8-methylene-4-oxaspiro[2.5]octan-5-yl)pyridin-3-yl)picolinamide] are 17 nM, 151 nM, 8 nM, 879 nM and above 10 µM.
As for `C=C1[C@H](O)C[C@H](c2ccncc2NC(=O)c2nc(-c3c(F)cccc3F)ncc2N)OC12CC2` [Example 8, 5-amino-2-(2,6-difluorophenyl)-N-(4-((5R,7R)-7-hydroxy-8-methylene-4-oxaspiro[2.5]octan-5-yl)pyridin-3-yl)pyrimidine-4-carboxamide], the IC50 against PIM3 was determined as 149 nM; at PIM2, 323 nM; against PIM1, 51 nM; at GSK3β, 1330 nM. Moreover, the EC50 in assay [1] was above 10 µM.
In the case of `C=C1[C@H](O)C[C@H](c2ccncc2NC(=O)c2ccc(F)c(-c3c(F)cccc3F)n2)OC12CC2` [Example 9, 6-(2,6-difluorophenyl)-5-fluoro-N-(4-((5R,7R)-7-hydroxy-8-methylene-4-oxaspiro[2.5]octan-5-yl)pyridin-3-yl)picolinamide], the IC50 against PIM3 was found to be 25 nM; against PIM2, 154 nM; at PIM1 it was 4.9 nM; on GSK3β, 453 nM. The compound also displayed an EC50 in assay [1] above 10 µM.
The matching figures for `C[C@@H]1OC(c2ccncc2NC(=O)c2nc(-c3c(F)cccc3F)ncc2N)=C[C@H](O)[C@@]1(C)O` [Example 10, 5-amino-2-(2,6-difluorophenyl)-N-(4-((2S,3R,4S)-3,4-dihydroxy-2,3-dimethyl-3,4-dihydro-2H-pyran-6-yl)pyridin-3-yl)pyrimidine-4-carboxamide]: 20.6 nM, 40 nM, 18.6 nM, 1470 nM and 8.63 µM.
With `C[C@H]1OC(c2ccncc2NC(=O)c2nc(-c3c(F)cccc3F)ncc2N)=C[C@@H](O)[C@]1(C)O` [Example 11, 5-amino-2-(2,6-difluorophenyl)-N-(4-((2R,3S,4R)-3,4-dihydroxy-2,3-dimethyl-3,4-dihydro-2H-pyran-6-yl)pyridin-3-yl)pyrimidine-4-carboxamide], the IC50 at PIM3 worked out at 1.8 nM; against PIM2 it was 1.4 nM; on PIM1, 0.7 nM; on GSK3β it was 718 nM. The compound also came in with an EC50 in assay [1] of 0.718 µM.
Take `N#C[C@H]1O[C@@H](c2ccncc2NC(=O)c2nc(-c3c(F)cccc3F)c(F)cc2N)C[C@@H](O)[C@@H]1O` [Example 12, 3-amino-N-(4-((2R,4R,5S,6R)-6-cyano-4,5-dihydroxytetrahydro-2H-pyran-2-yl)pyridin-3-yl)-6-(2,6-difluorophenyl)-5-fluoropicolinamide]: the IC50 was 3 nM against PIM3, 5 nM at PIM2, 1 nM against PIM1 and 220 nM on GSK3β. The same compound returned an EC50 in assay [1] of 7.65 µM.
Consider `N#C[C@H]1O[C@@H](c2ccncc2NC(=O)c2ccc(F)c(-c3c(F)cccc3F)n2)C[C@@H](O)[C@@H]1O` [Example 13, N-(4-((2R,4R,5S,6R)-6-cyano-4,5-dihydroxytetrahydro-2H-pyran-2-yl)pyridin-3-yl)-6-(2,6-difluorophenyl)-5-fluoropicolinamide], for which the IC50 on PIM3 stood at 5 nM; at PIM2 it was 12 nM; against PIM1 it was 1 nM; on GSK3β, 583 nM. The compound also yielded an EC50 in assay [1] of 8.11 µM.
Consider `Nc1cnc(-c2c(F)cccc2F)nc1C(=O)Nc1cnccc1C1=C[C@@H](O)[C@H](O)[C@@H](CCl)O1` [Example 14, 5-amino-N-(4-((2S,3S,4R)-2-(chloromethyl)-3,4-dihydroxy-3,4-dihydro-2H-pyran-6-yl)pyridin-3-yl)-2-(2,6-difluorophenyl)pyrimidine-4-carboxamide], for which the IC50 against PIM3 amounted to 3 nM; against PIM2 it was 2 nM; at PIM1, 1 nM; on GSK3β it was 70 nM. For the same compound, the EC50 in assay [1] is 2.63 µM.
